Tests used:
ElogD 7.4 = assay type: physicochemical; details: pH 7.4
Description: 4 Detailed In Vitro and In Vivo Profiles for Selected M1 PAMs ^a | column: 17k; 17g

[1] = Plasma protein binding by equilibrium dialysis, human plasma; assay type: in vitro ADME; details: fraction unbound in human plasma
Experimental: (§1) for 2 seconds (excitation, 480 nm; emission, 530 nm), first add occurred by adding 20 µL of test compound to the cells, and the response was measured for 140 seconds. This is followed by second add; 10 µL (5X) of an EC20 concentration of ACh agonist was added to the cells, and the response of the cells was measured for 125 seconds. Immediately, the third add occurred by adding 12 ul assay buffer or 5X of an EC max concentration of ACh and the response of the cells was measured for 90 seconds. Assay buffer was added to the wells that incubated with compounds followed by EC20 concentration of ACh. […] Calcium fluorescence was recorded as fold over basal fluorescence and raw data were normalized to the maximal response to ACh agonist. Potency (EC50) and maximum response (% ACh Max) for compounds was determined using a four -parameter logist ical equation using GraphPad Prism (La Jolla, CA) or the Dotmatics software platform ( Woburn, MA) : […]
(§2) The protein binding of each compound was determined in plasma via equilibrium dialysis employing rapid equilibrium dialysis (RED) plates (ThermoFisher Scientific, Rochester, NY). […]
(§3) same manner as the plasma samples in the previously described plasma protein binding assay. Fraction unbound for both plasma and brain samples was determined using Equation 4. […]

[2] = Plasma protein binding by equilibrium dialysis, rat plasma; assay type: in vitro ADME; details: fraction unbound in rat plasma
Experimental: as §1, §2, §3

[3] = Rat in vivo PK (PK/PBL cassette); details: for AUC / MRT / half-life / Vd: plasma; for clearance: plasma clearance, read-out: CLp; for Vd: read-out: Vss
Description: 4 Detailed In Vitro and In Vivo Profiles for Selected M1 PAMs ^a | column: Property; 17k; 17g

| chromatographic logD (ElogD 7.4) | Human fuplasma [1] | Rat fuplasma [2] | AUC [3] | MRT [3] | half-life [3] | clearance [3] | Vd [3] | Structure (SMILES) |
| --- | --- | --- | --- | --- | --- | --- | --- | --- |
| 3.05 | 0.08 | 0.08 | 160 ng·h/mL | 76.8 min | 72.6 min | 20.8 mL/min/kg | 1.59 L/kg | Cn1cc(-c2ccc(Cc3cc(C(=O)N[C@H]4CCOC[C@@H]4O)nn3C3CCCC3)cc2)cn1 [17g] |
| 4.15 | 0.01 | 0.03 | 74.4 ng·h/mL | 39 min | 37.8 min | 56 mL/min/kg | 2.2 L/kg | Cn1cc(-c2ccc(Cc3cc(C(=O)N[C@H]4CCCC[C@@H]4O)nn3C3CCCC3)cc2)cn1 [17k] |

From publication PMC12257413, “Discovery of a Novel sp^3‑Rich M1 Positive Allosteric Modulators (PAMs) Chemotype via Scaffold Hopping” (ACS Medicinal Chemistry Letters, 2025)
